In ChEMBL document CHEMBL1201862, “PubChem BioAssay data set” (2004):
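Values below derive from 48-hour exposures of cells grown in 96-well plates, with endpoints linearly interpolated between the two concentrations bracketing the appropriate inhibition level. At the GI50, growth is halved.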 Activity calls are given as the source filed them. No stated cut-off is given here; in the data, active = GI50 up to about 1.1 µM and inactive = higher.

Tests used:
Experiment in all cases: NCI tumour cell line growth inhibition, 48 h
NCI-H460 = system: NCI-H460
HT-29 = system: HT-29
K562 = system: K562
RPMI-8226 = system: RPMI-8226
Malme-3M = system: Malme-3M
MDA-MB-435 = system: MDA-MB-435
MCF7 = system: MCF7
IGROV-1 = system: IGROV-1
SR = system: SR
SK-MEL-2 = system: SK-MEL-2
KM12 = system: KM12
SF-539 = system: SF-539
MOLT-4 = system: MOLT-4
SK-MEL-5 = system: SK-MEL-5
SF-268 = system: SF-268
ACHN = system: ACHN
SK-OV-3 = system: SK-OV-3
HL-60 = system: HL-60
HCC 2998 = system: HCC 2998
UACC-257 = system: UACC-257

Measured: GI50

O=C(O)c1cc(Cl)cc(Cc2cc(Cl)cc(C(=O)O)c2O)c1O
inactive: NCI-H460 > 100 µM | HT-29 > 100 µM | K562 > 100 µM | RPMI-8226 > 100 µM | Malme-3M > 100 µM | MDA-MB-435 > 100 µM | MCF7 > 100 µM | IGROV-1 > 100 µM | SR > 100 µM | SK-MEL-2 > 100 µM | KM12 > 100 µM | SF-539 > 100 µM | MOLT-4 > 100 µM | SK-MEL-5 > 100 µM | SF-268 > 100 µM | ACHN > 100 µM | SK-OV-3 > 100 µM

c1ccc(-c2cnc(-c3ccc(-c4ncc(-c5ccccc5)o4)cc3)o2)cc1
inactive: NCI-H460 > 100 µM | HL-60 > 100 µM | HT-29 > 100 µM | HCC 2998 > 100 µM | K562 > 100 µM | RPMI-8226 > 100 µM | Malme-3M > 100 µM | UACC-257 > 100 µM | MDA-MB-435 > 100 µM | MCF7 > 100 µM | IGROV-1 > 100 µM | KM12 > 100 µM | MOLT-4 > 100 µM | SK-MEL-5 > 100 µM | SF-268 > 100 µM | ACHN > 100 µM | SK-OV-3 > 100 µM

COc1ccc(C2OC(c3ccncc3)=NN2C)cc1OC (stereo unspecified)
inactive: NCI-H460 > 100 µM | HL-60 96.8 µM | HT-29 > 100 µM | HCC 2998 > 100 µM | K562 > 100 µM | RPMI-8226 > 100 µM | Malme-3M > 100 µM | UACC-257 > 100 µM | MDA-MB-435 > 100 µM | MCF7 71.3 µM | IGROV-1 > 100 µM | SK-MEL-2 > 100 µM | KM12 > 100 µM | SF-539 > 100 µM | MOLT-4 75.7 µM | SK-MEL-5 92.5 µM | SF-268 > 100 µM | ACHN > 100 µM | SK-OV-3 > 100 µM

CN1C(=O)c2c(ccc3c2OCO3)C2C(O)Cc3cc4c(cc3C21)OCO4 (stereo unspecified)
inactive: NCI-H460 3.4 µM | HL-60 2.4 µM | HT-29 3.3 µM | HCC 2998 4.06 µM | K562 4.71 µM | RPMI-8226 3.83 µM | MDA-MB-435 1.61 µM | MCF7 7.5 µM | IGROV-1 2.36 µM | SK-MEL-2 2.47 µM | KM12 3.15 µM | SF-539 4.57 µM | MOLT-4 4.04 µM | SK-MEL-5 5.51 µM | SF-268 8.75 µM | ACHN 7.21 µM | SK-OV-3 2.98 µM

CC(=O)O[C@@H]1CC[C@@]2(C)C(CC[C@H]3[C@@H]4CC[C@H]([C@H](C)CCc5nc6cc(C)ccc6[nH]5)[C@@]4(C)CC[C@@H]32)C1 (stereo partly specified)
inactive: HT-29 12.4 µM | HCC 2998 71.3 µM | K562 12.6 µM | RPMI-8226 8.89 µM | UACC-257 38.7 µM | MDA-MB-435 > 100 µM | MCF7 38.4 µM | IGROV-1 4.34 µM | SK-MEL-2 31 µM | KM12 12.7 µM | SF-539 > 100 µM | MOLT-4 28.1 µM | SK-MEL-5 25.9 µM | SF-268 > 100 µM | ACHN 99.3 µM | SK-OV-3 > 100 µM

CCOC(=O)/C(C#N)=N\Nc1ccc(-n2c(C)nc3ccc(Br)cc3c2=O)cc1
inactive: NCI-H460 44.7 µM | HL-60 21.9 µM | HT-29 69.5 µM | K562 35.6 µM | RPMI-8226 30.3 µM | UACC-257 > 100 µM | MDA-MB-435 84.1 µM | MCF7 72.1 µM | IGROV-1 41.9 µM | SR 19.7 µM | SK-MEL-2 > 100 µM | KM12 40.3 µM | SF-539 87.9 µM | MOLT-4 27.4 µM | SK-MEL-5 25.6 µM | SF-268 68.5 µM | ACHN > 100 µM | SK-OV-3 > 100 µM

FC1C2=C(SC1(F)F)C1CCC2C1 (stereo unspecified)
inactive: NCI-H460 > 100 µM | HL-60 > 100 µM | HT-29 > 100 µM | K562 > 100 µM | RPMI-8226 > 100 µM | Malme-3M > 100 µM | UACC-257 > 100 µM | MDA-MB-435 > 100 µM | MCF7 > 100 µM | IGROV-1 > 100 µM | SR > 100 µM | SK-MEL-2 > 100 µM | KM12 > 100 µM | MOLT-4 > 100 µM | SK-MEL-5 > 100 µM | ACHN > 100 µM | SK-OV-3 > 100 µM

CC(C)OC1=C(CC2(C)OCCO2)C(=O)C12OCCO2
inactive: NCI-H460 > 100 µM | HL-60 > 100 µM | HT-29 > 100 µM | UACC-257 > 100 µM | MDA-MB-435 > 100 µM | MCF7 > 100 µM | IGROV-1 > 100 µM | SK-MEL-2 > 100 µM | KM12 > 100 µM | SF-539 > 100 µM | MOLT-4 > 100 µM | SK-MEL-5 > 100 µM | SF-268 > 100 µM | ACHN > 100 µM | SK-OV-3 > 100 µM
